# Test results as given in patent publication US8530179B2, “Electrochemical methods of detecting cancer with 4-aminophenyl phosphate” (Ramot at Tel-Aviv University Ltd, priority 2007, dated 2013).
# Tested on: HT-29 colon cancer cells
# Assay: Amperometric measurement of induced alkaline phosphatase activity in HT-29 cells on the electrochemical array chip (substrate p-APP, 220 mV)
# Assay type: cell-based, human
# Details: for induced alkaline phosphatase enzymatic activity (amperometric current): exposed for 96 hours, substrate PAPP, 220 mV
# Experimental: HT-29 human colon cancer cells were grown in DMEM medium in the presence of fetal bovine serum at 37° C. in 95% air, 5% CO2 for 3 days prior to butyrate treatment. Butyrate at different concentrations was added to the HT-29 cell cultures. Concentrations applied were: 0, 0.078, 0.156, 0.3125, 0.625, 1.25, 2.5, 5 and 10 mM. Optimal butyrate concentration, LC50 and viability were calculated accordingly. The measurements were performed in PBS with the intact cells and without additional treatment of the cancer cells such as lysis.
# BA (Sigma, Israel) ranging between 0.08-10 mM were introduced to HT-29 colon cancer cells and incubated for 72 h for optimization. BA at a constant concentration of 2.5 mM was applied in all electrochemical experiments. BA derivatives, butyroylmethyl-diethyl phosphate, and pivaloyloxymethyl butyrate, were synthesized as described [Rephaeli A, Zhuk R, Nudelman A, 2000, Drug Develop. Res. Vol 50:379-391]. Butyroylmethyl-diethyl phosphate was solubilized in PBS and pivaloyloxymethyl butyrate in DMSO followed by dilution with medium to a final DMSO concentration of ≦0.1%. The prodrugs were then introduced to the cells at a constant concentration of 50 μM and incubated for 96 h at 37° C. in 95% air, 5% CO2 conditions. Following incubation with the differentiation agents, viable cells were counted by tripa blue exclusion and tested for viability and LC50 calculations. Prior to all electrochemical measurement, cells were centrifuged and diluted in PBS. All measurements were performed in PBS. The influence of BA, pivaloyloxymethyl butyrate and butyroylmethyl-diethyl phosphate were examined by measuring the enzymatic activity of alkaline phosphatase.
# Amperometric enzyme measurements were performed with the electrochemical substrate, p-APP. The enzymatic reaction product, aminophenol (p-AP), is oxidized at the gold working electrode at 220 mV and the generated current was measured. Eight-channeled 100 nL volume electrochemical chambers were loaded with HT-29 cancer cells, that were treated with BA or its derivatives. Cells were placed into the electrochemical chambers and the substrate was added to 1 mg/ml final concentration at a total volume of 100 nL. The generated current was measured and the number of cells was counted under the microscope. The correlation between cell number and current density was analyzed.
# HT-29 colon cancer cells were exposed for 96 hours to various differentiation therapy agents and the induced alkaline phosphatase activity was measured. […]
# In order to further examine the sensitivity of the biochip, increasing numbers of HT-29 colon cancer cells were incubated with butyroylmethyl-diethyl phosphate for different lengths of time. The amount of endogenous alkaline phosphatase was measured using the biochip of the present invention.
Structure (SMILES),induced alkaline phosphatase enzymatic activity (amperometric current) (2.5 mM),induced alkaline phosphatase enzymatic activity (amperometric current) (50 μM),"effect on cancer cells (alkaline phosphatase current signal) versus incubation time (eight, seventy eight and ninety six hour treatment, increasing cell numbers)"
"CCCC(=O)O [BA, Butyric acid]",induced enzymatic activity of alkaline phosphatase,,
CCCC(=O)OCOP(=O)(OCC)OCC [butyroylmethyl-diethyl phosphate],,induced enzymatic activity of alkaline phosphatase,increased as incubation time increased
CCCC(=O)OCOC(=O)C(C)(C)C [pivaloyloxymethyl butyrate],,did not induce any enzyme activity,
